Assay in all cases: NCI-60 cell line screen, 48 h
Test [1] relates to ACHN renal.
Test [2] concerns NCI-H23 lung.
Test [3] has as its system SK-MEL-5 melanoma.
Test [4] concerns SNB-75 CNS.
Test [5] relates to SW-620 colon.
The test system of test [6] is OVCAR-8 ovarian.
Test [7] has as its system SK-MEL-2 melanoma.
For test [8], the system named is HCT-116 colon.
In test [9] the test system is OVCAR-4 ovarian.
Test [10] concerns SF-268 CNS.

Experimental findings from PubChem BioAssay (NCI) are described below.

Each structure is given as a SMILES string.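 Test compounds were applied to cells in 96-well plates for 48 hours at 5 doses. GI50 marks 50% less growth. TGI denotes the concentration required for complete inhibition of growth.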 Some results are limits rather than exact numbers.

In the case of `Nc1nn2cc(F)cnc2c1C(=O)Nc1cncc(F)c1N1CCC(C(=O)N2CCN(C3COC3)CC2)CC1`, the GI50 in test [1] is 250 nM; in test [2], 60.6 nM; in test [3], 428 nM; in [4] it was 0.168 µM; in [5] it was 1510 nM; in test [6] it was 548 nM. Besides, the GI50 in [7] is 194 nM; in test [8], 942 nM; in [9], 0.326 µM; in test [10] it was 1.33 µM. The TGI in test [2] was 0.498 µM; in [3] it was 1.77 µM; in [4], 1.5 µM; in [5], > 100 µM; in test [6], 6.13 µM; in [7], 0.821 µM. Further, the TGI in test [8] is > 29.6 µM; in test [9], 7.86 µM; in test [10], > 100 µM.

Consider `O=C(/C=C/c1ccccc1)CCC1C(=O)c2ccccc2C1=O`, for which the TGI in [1], in [2], in test [3], in test [4], in test [5] and in test [6] was > 100 µM each time. In addition, the TGI in [7], in test [8], in test [9] and in test [10] was > 100 µM each time.

Turning to `COc1ccc(/C=C\[N+](=O)[O-])cc1OC`, the GI50 in test [1] was 3680 nM; in [2], 2240 nM; in test [3], 3720 nM; in [4], 10.6 µM; in test [5], 1900 nM; in test [6], 2840 nM. Also, the GI50 was 2640 nM in test [7], 1370 nM in test [8], 14 µM in test [9] and 5.88 µM in test [10]. Also, the TGI is 13.9 µM in [1]; 6.52 µM in test [2]; 14.4 µM in test [3]; 29.8 µM in test [4]; 4.9 µM in test [5]; 11.1 µM in test [6]. Further, the TGI in test [7] stood at 7.39 µM; in test [8], 2.85 µM; in test [9], 27.5 µM; in test [10] it was 20.5 µM.

On to `O=C(O)c1nnsc1-c1ccc(-c2snnc2C(=O)O)cc1`, for which the TGI in test [1], in test [2], in [3], in test [4], in [5] and in test [6] was > 100 µM throughout. Further, the TGI in test [7], in [8], in test [9] and in [10] was > 100 µM in each case.

As to `CCCCC#CC1=C(Br)C(=O)OC1`, the GI50 in test [1] is 2240 nM; in test [2], 1500 nM; in test [3], 118 nM; in test [4], 15.6 µM; in test [5], 23.7 nM; in test [6], 1750 nM. Further, the GI50 was 3120 nM in test [7], 139 nM in test [8], 3.99 µM in test [9] and 2.47 µM in test [10]. Moreover, the TGI is > 21 µM in [1]; 9.23 µM in test [2]; 0.366 µM in test [3]; > 100 µM in test [4]; 0.21 µM in test [5]; 10.2 µM in test [6]. In addition, the TGI stood at 15.2 µM in test [7], 0.327 µM in test [8], 11.3 µM in [9] and 10.2 µM in test [10].

Regarding `Nc1nc(Cl)cc(NCCCCCCCCNc2cc(Cl)nc(N)n2)n1`, the TGI was 0.735 µM in test [1]; > 100 µM in test [2]; 13 µM in test [3]; 74.4 µM in [4]; > 100 µM in test [5]; 58.6 µM in test [6]. Further, the TGI in [7], in [8], in test [9] and in [10] was > 100 µM throughout.

Turning to `Cc1cc(Cl)cc(OCCn2cc(F)cn2)c1-c1nc(N)nc2c1CN(C(=O)NCC(C)(F)F)C2`, the GI50 in test [1] is 184 nM; in test [2], 273 nM; in test [3], 179 nM; in test [5], 43 nM; in [6] it was 77.6 nM; in test [7] it was 508 nM. Moreover, the values for the GI50 in [8], in test [9] and in [10] were 54.8 nM, > 100 µM and > 55.4 µM, respectively. Moreover, the TGI in test [1], in test [2], in test [3], in test [4], in [5] and in test [6] was > 100 µM in each case. Also, the TGI in test [7], in test [8], in test [9] and in [10] was > 100 µM in each case.

`Cc1c2n(c(=O)[nH]c1=O)C1OC(CO)C(O2)C1O` (stereo not drawn): the TGI in [1], in test [2], in [3], in [4], in [5] and in [6] was > 100 µM each time. Also, the TGI in [7], in test [8], in test [9] and in test [10] was > 100 µM throughout.

With `O=C(Nc1ccc(Nc2ccncc2)cc1)c1ccc([N+](=O)[O-])cc1`, the GI50 is 4620 nM in test [1]; 10800 nM in [2]; 4890 nM in test [3]; 4.26 µM in test [4]; 2220 nM in test [5]; 8440 nM in test [6]. The GI50 in [7] is 9640 nM; in [8], 2930 nM; in test [9], 5.37 µM; in [10], 6.79 µM. In addition, the TGI in test [1] is 19.7 µM; in test [2] it was > 62.6 µM; in [3] it was 21.4 µM; in [4], 20 µM; in test [5], 5.08 µM; in test [6], 32.6 µM. Moreover, the TGI in test [7] was 28.9 µM; in test [8] it was 17 µM; in [9], 27.4 µM; in test [10] it was 27.5 µM.
